Results: publication PMC3675114, “Structural Basis and Selectivity of Tankyrase Inhibition by a Wnt Signaling Inhibitor WIKI4” (PLoS ONE, 2013)

Biological target: T1, Tankyrase 1 (TNKS1) (Homo sapiens, UniProt O95271)
T1 construct: gene TNKS
Assay: fluorescence-based homogeneous NAD+ consumption activity assay
Type: biochemical

T1 sequence (O95271 whole entry): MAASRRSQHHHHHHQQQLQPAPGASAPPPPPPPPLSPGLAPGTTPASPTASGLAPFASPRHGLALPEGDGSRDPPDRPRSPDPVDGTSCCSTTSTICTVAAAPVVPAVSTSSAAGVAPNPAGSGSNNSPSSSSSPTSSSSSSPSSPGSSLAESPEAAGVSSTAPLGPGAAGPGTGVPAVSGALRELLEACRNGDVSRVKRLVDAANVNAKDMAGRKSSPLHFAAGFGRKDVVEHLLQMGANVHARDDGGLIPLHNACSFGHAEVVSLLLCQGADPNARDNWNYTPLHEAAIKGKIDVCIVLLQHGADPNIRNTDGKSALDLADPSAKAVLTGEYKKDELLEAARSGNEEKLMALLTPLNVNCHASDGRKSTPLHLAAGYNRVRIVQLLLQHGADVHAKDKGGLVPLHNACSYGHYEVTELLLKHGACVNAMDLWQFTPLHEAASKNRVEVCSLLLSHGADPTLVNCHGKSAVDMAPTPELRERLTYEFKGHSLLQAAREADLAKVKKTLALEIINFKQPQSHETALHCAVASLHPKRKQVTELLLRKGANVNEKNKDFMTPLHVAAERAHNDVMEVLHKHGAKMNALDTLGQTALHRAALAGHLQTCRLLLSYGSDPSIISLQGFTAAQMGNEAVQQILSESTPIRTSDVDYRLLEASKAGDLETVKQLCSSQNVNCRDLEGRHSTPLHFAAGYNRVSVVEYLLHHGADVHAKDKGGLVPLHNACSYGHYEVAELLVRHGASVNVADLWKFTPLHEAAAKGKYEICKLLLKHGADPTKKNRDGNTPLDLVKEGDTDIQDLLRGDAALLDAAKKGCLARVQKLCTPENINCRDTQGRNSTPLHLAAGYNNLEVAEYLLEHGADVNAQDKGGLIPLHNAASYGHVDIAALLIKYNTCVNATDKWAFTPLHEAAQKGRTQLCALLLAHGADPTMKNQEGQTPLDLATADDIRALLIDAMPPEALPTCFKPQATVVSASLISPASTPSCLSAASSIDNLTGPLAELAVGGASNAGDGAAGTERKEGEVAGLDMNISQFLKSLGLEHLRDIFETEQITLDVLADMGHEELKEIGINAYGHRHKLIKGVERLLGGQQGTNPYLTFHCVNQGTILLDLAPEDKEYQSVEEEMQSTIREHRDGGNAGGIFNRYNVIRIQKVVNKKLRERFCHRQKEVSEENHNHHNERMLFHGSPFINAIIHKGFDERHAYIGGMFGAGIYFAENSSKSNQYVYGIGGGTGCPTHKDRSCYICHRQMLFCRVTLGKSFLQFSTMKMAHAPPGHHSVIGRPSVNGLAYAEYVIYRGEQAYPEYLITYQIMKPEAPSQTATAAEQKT

Work on `COc1ccc(-n2c(SCCCN3C(=O)c4cccc5cccc(c45)C3=O)nnc2-c2ccncc2)cc1` [WIKI4] yielded an IC50 of 26 nM.
